One assay concerns the target DGKα (Homo sapiens (Human), UniProt P23743). The experiment in a line: Biochemical DGK IC50 assay, DGKα ADP-Glo assay. To be noted: 7.5 nM enzyme, 140 μM ATP, 80 μM DAG. As to the method:
(§1) Enzymatic reactions of DGKζ, DGKα and DGKδ were performed using ADP-Glo assay with lipid micelle substrate. […] Full length DGKα (D21-10BG, SignalChem) and full length DGKδ (D23-10G, SignalChem) were purchased. Lipid micelle was prepared by dissolving DAG (Sigma, 317505-10MG) and PS (Sigma, P7769-100MG) with chloroform which was furtherly removed by rotary evaporation. The resulted product was resuspended in buffer containing 25 mM HEPES pH 7.0, 0.5 mM EDTA and 160 mM Octyl β-D glucopyranoside by vigorous mixing and ultrasonic (IID, Scientz).
(§2) The ranges of compounds final concentration were 1.55˜10000 nM or 23.3˜150000 nM. 3 μL 2× enzyme solution was added to wells.
A general note: ADP-Glo turns the ADP formed in a reaction into a luminescent signal.

The next assay addresses DGKζ (Homo sapiens (Human), UniProt Q13574). In words: Biochemical DGK IC50 assay, DGKζ ADP-Glo assay. The note with it: 0.5 nM enzyme, 140 μM ATP, 80 μM DAG; read-out: DGKζ ADP-Glo assay IC50. As to the method: as §1, §2
Human His-TEV-DGK-zeta-pFastBac1 and human baculovirus samples was generated using the Bac-to-Bac baculovirus expression system (Invitrogen) according to the manufacturer's protocol. The DNA used for expression of DGK-zeta, have SEQ ID Nos: 1. Baculovirus amplification was achieved using infected SF9 cells at 1:2000 virus/cells ratios, and grown for 96 hours at 27° C. post-transfected.
The expression scaled up for each protein was carried out in the […] from CORNING. 4 L of 3×10^6 cells/mL Sf9 cells (Expression System, Invitrogen) grown in SF900™ II SFM insect medium (Expression System) was infected with virus stock at 1:200 virus/cells ratio, and grown for 48 hours at 27° C. post-transfection. The infected cell culture was harvested by centrifugation at 6000 rpm for 15 min 4° C. in a SORVALL LYNX6000 centrifuge. The cell pellets were stored at −80° C.
Full length human DGKζ produced as described above, was purified from Sf9 baculovirus-infected insect cell paste. The cells were lysed using sonication method, and the lysates were clarified by centrifugation.

Chain of DGKα (P23743 whole entry): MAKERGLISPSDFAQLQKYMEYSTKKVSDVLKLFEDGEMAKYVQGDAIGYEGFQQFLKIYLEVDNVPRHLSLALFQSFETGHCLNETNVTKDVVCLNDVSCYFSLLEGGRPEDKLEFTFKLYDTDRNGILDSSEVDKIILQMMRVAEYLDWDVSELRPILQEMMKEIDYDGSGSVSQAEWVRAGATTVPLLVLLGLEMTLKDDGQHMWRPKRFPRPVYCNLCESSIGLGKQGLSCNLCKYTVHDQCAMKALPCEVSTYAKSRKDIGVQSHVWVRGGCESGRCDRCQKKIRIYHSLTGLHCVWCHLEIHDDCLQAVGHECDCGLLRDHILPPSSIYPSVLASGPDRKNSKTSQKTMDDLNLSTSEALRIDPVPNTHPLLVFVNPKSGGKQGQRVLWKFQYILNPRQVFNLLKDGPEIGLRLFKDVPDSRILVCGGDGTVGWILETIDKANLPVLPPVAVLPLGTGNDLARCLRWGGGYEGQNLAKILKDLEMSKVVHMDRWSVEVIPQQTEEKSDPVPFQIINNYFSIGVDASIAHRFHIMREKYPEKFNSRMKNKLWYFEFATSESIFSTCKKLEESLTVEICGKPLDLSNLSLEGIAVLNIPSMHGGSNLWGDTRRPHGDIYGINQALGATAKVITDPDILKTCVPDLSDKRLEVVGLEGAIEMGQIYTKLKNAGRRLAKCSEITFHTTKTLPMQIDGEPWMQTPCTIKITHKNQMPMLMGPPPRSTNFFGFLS
Chain of DGKζ (Q13574 other isoform, or with tags, fused parts or gaps): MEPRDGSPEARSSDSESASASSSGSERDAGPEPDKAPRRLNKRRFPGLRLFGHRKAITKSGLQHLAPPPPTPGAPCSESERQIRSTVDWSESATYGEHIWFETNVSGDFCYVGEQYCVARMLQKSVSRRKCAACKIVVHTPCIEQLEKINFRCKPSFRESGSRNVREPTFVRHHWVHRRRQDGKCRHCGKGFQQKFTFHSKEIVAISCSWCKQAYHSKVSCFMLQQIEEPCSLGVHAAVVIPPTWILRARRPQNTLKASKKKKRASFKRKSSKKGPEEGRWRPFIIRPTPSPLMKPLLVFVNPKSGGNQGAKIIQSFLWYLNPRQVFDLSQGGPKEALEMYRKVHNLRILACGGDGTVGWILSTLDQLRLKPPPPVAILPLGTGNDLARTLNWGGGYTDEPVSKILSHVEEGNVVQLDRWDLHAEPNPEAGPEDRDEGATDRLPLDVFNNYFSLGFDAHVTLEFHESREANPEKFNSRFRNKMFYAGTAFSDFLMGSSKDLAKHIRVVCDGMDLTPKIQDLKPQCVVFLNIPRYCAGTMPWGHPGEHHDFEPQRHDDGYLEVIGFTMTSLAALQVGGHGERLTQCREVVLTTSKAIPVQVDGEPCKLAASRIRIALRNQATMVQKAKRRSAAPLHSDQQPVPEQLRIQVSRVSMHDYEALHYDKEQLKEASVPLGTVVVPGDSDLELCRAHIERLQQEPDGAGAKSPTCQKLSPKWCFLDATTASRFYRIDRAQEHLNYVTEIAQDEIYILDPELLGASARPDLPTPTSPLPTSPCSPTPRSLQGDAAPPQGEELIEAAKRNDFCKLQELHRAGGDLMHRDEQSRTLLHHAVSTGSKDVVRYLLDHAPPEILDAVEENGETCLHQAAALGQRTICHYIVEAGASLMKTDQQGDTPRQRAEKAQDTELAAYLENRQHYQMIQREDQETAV

A word on the IC50: it is the midpoint of a concentration-inhibition curve. Take `CC[C@@H]1CN(c2cc(=O)n(C)c3cn(CC#N)nc23)[C@@H](CO)CN1C(C)c1ccc2nccnc2c1` (stereo partly drawn) [Compound A229, 2-(7-((2R,5R)-5-ethyl-2-(hydroxymethyl)-4-(1-(quinoxalin-6-yl)ethyl)piperazin-1-yl)-4-methyl-5-oxo-4,5-dihydro-2H-pyrazolo[4,3-b]pyridin-2-yl)acetonitrile]: the IC50 stood at 24100 nM against DGKα and 166 nM at DGKζ.
On the same counts, the results for `CC[C@H]1CN(C(C)c2cccc(C(N)=O)c2)[C@H](CC)CN1c1cc(=O)n(C)c2cn(CC#N)nc12` (stereo partly drawn) [Compound A108] are 3830 nM and more than 10000 nM.
As to `CC[C@H]1CN(C(C)c2ccccc2NC(C)=O)[C@H](CC)CN1c1cc(=O)n(C)c2cn(CC#N)nc12` (stereo partly drawn) [Compound A165], the IC50 was more than 10000 nM at DGKα and 2840 nM at DGKζ.
The corresponding values for `CC[C@H]1CN(C(C)c2ccc3cccnc3n2)[C@H](CC)CN1c1cc(=O)n(C)c2cn(CC#N)nc12` (stereo partly drawn) [Compound A63, 2-(7-((2S,5R)-4-(1-(1,8-naphthyridin-2-yl)ethyl)-2,5-diethylpiperazin-1-yl)-4-methyl-5-oxo-4,5-dihydro-2H-pyrazolo[4,3-b]pyridin-2-yl)acetonitrile] are 83 nM and 43 nM.
The corresponding values for `CC[C@H]1CN(C(C)c2ncccn2)[C@H](CC)CN1c1cc(=O)n(C)c2cn(CC#N)nc12` (stereo partly drawn) [Compound A130] are 15 nM and 9080 nM.
The corresponding values for `CC[C@H]1CN(C(C)c2ccc3nccnc3c2)[C@H](CC)CN1c1cc(=O)n(CCO)c2cn(CC#N)nc12` (stereo partly drawn) [Compound A95, 2-(7-((2S,5R)-2,5-diethyl-4-(1-(quinoxalin-6-yl)ethyl)piperazin-1-yl)-4-(2-hydroxyethyl)-5-oxo-4,5-dihydro-2H-pyrazolo[4,3-b]pyridin-2-yl)acetonitrile] are 12200 nM and 53 nM.
Consider `Cc1cnc2ccc([C@H](C)N3C[C@H](C)N(c4nc(=O)n(C)c5cn(CC#N)nc45)C[C@H]3C)cc2n1` [Compound A319, 2-(7-((2S,5R)-2,5-dimethyl-4-((S)-1-(3-methylquinoxalin-6-yl)ethyl)piperazin-1-yl)-4-methyl-5-oxo-4,5-dihydro-2H-pyrazolo[4,3-d]pyrimidin-2-yl)acetonitrile], for which the IC50 is 49800 nM against DGKα and 23 nM on DGKζ.
The corresponding values for `CC[C@H]1CN(C(C)c2cc3ccccc3c(C)n2)[C@H](CC)CN1c1cc(=O)n(C)c2cn(CC#N)nc12` (stereo partly drawn) [Compound A367] are 19300 nM and 3590 nM.
The corresponding values for `C[C@@H]1CN(c2cc(=O)n(C)c3cn(CC#N)nc23)[C@@H](C)CN1Cc1ccc(F)cc1C(F)(F)F` [Compound A246] are 9720 nM and 1070 nM.
For `CC[C@H]1CN(C(C)c2cc(C)ccc2C(F)(F)F)[C@H](CC)CN1c1cc(=O)n(C)c2cn(CC#N)nc12` (stereo partly drawn) [Compound A114], the results for the concentration for half-maximal inhibition (IC50) on DGKα and on DGKζ were more than 10000 nM and 6600 nM, respectively.
On the same counts, the results for `CC#CCn1cc2c(n1)c(N1C[C@@H](CC)N(C(C)c3cnc4ccccc4n3)C[C@@H]1C)cc(=O)n2C` (single isomer, unassigned) [Compound A394b] are 30 nM and 125 nM.
The corresponding values for `CC[C@H]1CN(C(C)c2ccc(C)cn2)[C@H](CC)CN1c1cc(=O)n(C)c2cn(CC#N)nc12` (stereo partly drawn) [Compound A346] are 29 nM and 556 nM.
Consider `COC(C)c1cc(F)ccc1C(C)N1C[C@H](C)N(c2cc(=O)n(C)c3cn(CC#N)nc23)C[C@H]1C` (single isomer, unassigned) [Compound A286a], for which the figures for the IC50 on DGKα and at DGKζ were more than 10000 nM and 2610 nM, respectively.
As for `CC[C@H]1CN(C(C)c2cccnc2C(F)(F)F)[C@H](CC)CN1c1cc(=O)n(C)c2cn(CC#N)nc12` (stereo partly drawn) [Compound A217], the figures for the IC50 against DGKα and at DGKζ were more than 10000 nM and 378 nM, respectively.
The corresponding values for `[2H]C([2H])([2H])c1cnc2ccc(C(C)N3C[C@H](C)N(c4cc(=O)n(C)c5cn(CC#N)nc45)C[C@H]3C)cc2n1` (single isomer, unassigned) [Compound A313a] are 116000 nM and 8290 nM.
On to `CC[C@H]1CN(C(C)c2ccc3c(n2)OCC3)[C@H](CC)CN1c1cc(=O)n(C)c2cn(CC#N)nc12` (stereo partly drawn) [Compound A337, 2-(7-((2S,5R)-4-(1-(2,3-dihydrofuro[2,3-b]pyridin-6-yl)ethyl)-2,5-diethylpiperazin-1-yl)-4-methyl-5-oxo-4,5-dihydro-2H-pyrazolo[4,3-b]pyridin-2-yl)acetonitrile], for which the IC50 was found to be 203 nM against DGKα and 283 nM at DGKζ.
The corresponding values for `COc1cnc2ccc(C(C)N3C[C@H](C)N(c4cc(=O)n(C)c5cn(CC#N)nc45)C[C@H]3C)cc2n1` (stereo partly drawn) [Compound A270, 2-(7-((2S,5R)-4-(1-(3-methoxyquinoxalin-6-yl)ethyl)-2,5-dimethylpiperazin-1-yl)-4-methyl-5-oxo-4,5-dihydro-2H-pyrazolo[4,3-b]pyridin-2-yl)acetonitrile] are 40100 nM and 169 nM.
On the same counts, the results for `CC[C@H]1CN(C(C)c2cn3ccccc3n2)[C@H](CC)CN1c1cc(=O)n(C)c2cn(CC#N)nc12` (stereo partly drawn) [Compound A388] are 1390 nM and 1250 nM.
Take `COC[C@@H]1CN(c2cc(=O)n(C)c3cn(CC#N)nc23)[C@@H](C)CN1C(C)c1ccc2nccnc2c1` (stereo partly drawn) [Compound A100, 2-(7-((2S,5S)-5-(methoxymethyl)-2-methyl-4-(1-(quinoxalin-6-yl)ethyl)piperazin-1-yl)-4-methyl-5-oxo-4,5-dihydro-2H-pyrazolo[4,3-b]pyridin-2-yl)acetonitrile]: the IC50 at DGKα came to 3780 nM; on DGKζ, 200 nM.
On the same counts, the results for `CC(c1c(Cl)cc(F)cc1Cl)N1C[C@H](C)N(c2cc(=O)n(C)c3cn(CC#N)nc23)C[C@H]1C` (stereo partly drawn) [Compound A272] are more than 10000 nM and 411 nM.
On the same counts, the results for `CC(c1ccc2nccnc2c1)N1CCN(c2cc(=O)n(C)c3cn(CC#N)nc23)C[C@@H]1C` (stereo partly drawn) [Compound A178] are more than 10000 nM and 6900 nM.
On to `CC[C@H]1CN(C(C)c2ccc(C)c(OC)n2)[C@H](CC)CN1c1cc(=O)n(C)c2cn(CC#N)nc12` (stereo partly drawn) [Compound A364], for which the results for the IC50 at DGKα and on DGKζ were 2520 nM and 288 nM, respectively.
On the same counts, the results for `CC(c1ccc2c(n1)OCCO2)N1C[C@H](C)N(c2cc(=O)n(C)c3cn(CC#N)nc23)C[C@H]1C` (stereo partly drawn) [Compound A324, 2-(7-((2S,5R)-4-(1-(2,3-dihydro-[1,4]dioxino[2,3-b]pyridin-6-yl)ethyl)-2,5-dimethylpiperazin-1-yl)-4-methyl-5-oxo-4,5-dihydro-2H-pyrazolo[4,3-b]pyridin-2-yl)acetonitrile] are more than 150000 nM and 4020 nM.
The corresponding values for `CC[C@H]1CN(C(C)c2ccc(F)nc2)[C@H](CC)CN1c1cc(=O)n(C)c2cn(CC#N)nc12` (single isomer, unassigned) [Compound A353a] are 32 nM and 190 nM.

The record behind these values is patent US20240270751A1, “Pyrazolopyridinone Compounds” (BeiGene Ltd., priority 2021, published 2024).
